In publication PMC12074917, “Molecular pharmacokinetic mechanism of JBP485 against aristolochic acid I (AAI) -induced nephrotoxicity” (Frontiers in Pharmacology, 2025):

Tested on: rat kidney slices
Assay: In vitro uptake of AAI in kidney slices
Format: in vitro ADME
Details: AAI 1 μM, JBP485 500 μM
Protocol: Rat kidneys were cut into slices with a ZQP-86 tissue slicer (Zhixin Co. Ltd., China), as previously described ([Wang et al., 2014]). After preincubation for 3 min at 37°C, the kidney slices were transferred to 24-well culture plates containing 1 mL of fresh oxygenated buffer with AAI (1 μM) and/or JBP485 (500 μM) and further incubated at 37 °C with gentle shaking. After incubation for 5, 15, and 30 min, the slices were washed with ice-cold Hanks’ balanced salt solution (pH 7.5). The amount of AAI accumulated in the homogenized kidneys was determined by LC–MS/MS.
The concentrations of the test compounds in plasma, urine, and cell lysates were determined using an Agilent HP1200 liquid chromatography system (Agilent Technology Inc., SC, CA, United States) and an API 3200 triple-quadrupole mass spectrometer (Applied Biosystems, SC, CA, United States). After protein precipitation using acetonitrile, the analyte was separated on a Hypersil BDS C18 column. The mobile phase consisted of acetonitrile and water containing 0.1% (v/v) formic acid (80:20, v/v). The flow rate was 0.4 mL/min. The mass spectrometer was equipped with an electrospray ionization (ESI) source. Data were acquired in positive ion mode and dynamic multiple reaction monitoring (MRM) mode. […]

With `O=C1N[C@@H](CO)C(=O)N2C[C@H](O)C[C@@H]12` (relative stereo) [JBP485, cyclo-trans-4-L-hydroxyprolyl-L-serine] the “AAI uptake in kidney slices” value was “inhibited”.
